Our source for the IC50 values is patent US9840498B2, “Substituted quinazolin-4-one derivatives” (NOVARTIS AG, priority 2013, dated 2017).

Where only a bound is given, the exact number is not on record here.

In one assay the target is PI3K alpha (Homo sapiens (Human), UniProt P42336). Kind of assay: Biochemical assay for PI3Kalpha (Kinase-Glo format). The following applies: enzymatic assay. As for the experimental part: 1.1 Generation of Gene Constructs, Protein Expression and Purification
For the enzymatic assays, the preparation of PI3K gene constructs, protein expression and purification for HTS are described in WO2012/004299.
1.2 Biochemical Assays for PI3Kalpha, PI3Kbeta (Kinase-Glo Format)
The kinase reaction is performed in a final volume of 50 μl per well of a half area COSTAR, 96 well plate. The final concentrations of ATP and phosphatidyl inositol in the assay are 5 μM and 6 μg/mL, respectively. The reaction is started by the addition of PI3 kinase, e.g. PI3 kinase α.
The components of the assay are added per well as follows: • 10 μl test compound in 5% DMSO per well in […]. • Total activity is determined by addition 10 μl of 5% vol/vol DMSO in the first 4 wells of column 1 and the last 4 wells of column 12. • The background is determined by addition of 10 μM control compound to the last 4 wells of column 1 and the first 4 wells of column 12. • 2 mL ‘Assay mix’ are prepared per plate: • 1.912 mL of HEPES assay buffer • 8.33 μl of 3 mM stock of ATP giving a final concentration of 5 μM per well • 1 μl of [^33P]ATP on the activity date giving 0.05 μCi per well • 30 μl of 1 mg/mL PI stock giving a final concentration of 6 μg/mL per well • 5 μl of 1 M stock MgCl2 giving a final concentration of 1 mM per well • 20 μl of the assay mix are added per well. • 2 mL ‘Enzyme mix’ are prepared per plate (x* μl PI3 kinase p110α in 2 mL of kinase buffer). The ‘Enzyme mix’ is kept on ice during addition to the assay plates. * The volume of enzyme is dependent on the enzymatic activity of the batch in use. • 20 μl ‘Enzyme mix’ are added/well to start the reaction. • The plate is then incubated at room temperature for 90 minutes. • The reaction is terminated by the addition of 50 μl WGA-SPA bead (wheat germ agglutinin-coated Scintillation Proximity Assay beads) suspension per well. • The assay plate is sealed using TopSeal-S (heat seal for polystyrene microplates, PerkinElmer LAS [Deutschland] GmbH, Rodgau, Germany) and incubated at room temperature for at least 60 minutes. • The assay plate is then centrifuged at 1500 rpm for 2 minutes using the Jouan bench top centrifuge (Jouan Inc., Nantes, France). • The assay plate is counted using a Packard TopCount, each well being counted for 20 seconds.
In a more preferred assay, the kinase reaction is performed in a final volume of 10 μl per well of a low volume non-binding CORNING, 384 well black plate (Cat. No. #3676). The final concentrations of ATP and phosphatidyl inositol (PI) in the assay are 1 μM and 10 μg/mL, respectively. The reaction is started by the addition of ATP.
The components of the assay are added per well as follows: […]

In assay [1] the target is human phosphoinositide-3 kinase (PI3K) alpha (Homo sapiens (Human), UniProt P42336). Kind of assay: PI3K-mediated Akt 1/2 (S473) phosphorylation in Rat-1 cells overexpressing PI3K alpha. The note with it: cellular assay, p-AKT(Ser473), read-out: Cell PI3K alpha IC50. The class given is cell-based, rat cells expressing human PI3K alpha. As for the experimental part:
2.1 Phosphoinositide-3 kinase (PI3K)-Mediated Akt 1/2 (S473) Phosphorylation in Rat-1 Cells
Rat-1 cells stably overexpressing a myristoylated form of the catalytic subunit of human phosphoinositide-3 kinase (PI3K) alpha, beta or delta were plated in 384-well plates at a density of 7500 (PI3K alpha), 6200 (PI3K beta), or 4000 (PI3K delta) cells in 30 ul complete growth medium (Dulbecco's modified Eagle's medium (DMEM high glucose) supplemented with 10% (v/v) fetal bovine serum, 1% (v/v) MEM non essential amino acids, 10 mM HEPES, 2 mM L-glutamine, 10 μg/mL puromycin and 1% (v/v) Penicillin/Streptomycin) and were incubated at […]/5% CO2/95% humidity for 24 h. Compounds were diluted in 384-well compound plates (compound master plates), to obtain 8-point serial dilutions for 40 test compounds in 90% DMSO, as well as 4 reference compounds plus 16 high controls and 16 low (inhibited) controls. Predilution plates were prepared by dispensing pipetting 250 nl of compound solutions into 384-well polypropylen plates (daugther plates), using a Hummingwell nanoliter dispenser. Compounds were prediluted by the addition of 49.75 ul complete growth medium. 10 ul of prediluted compound solution were transferred to the cell plate using a 384-well pipettor, resulting in a final DMSO concentration of 0.11%. Cells were incubated for 1 h at […]/5% CO2/95% humidity. The supernatant was removed, the cells were lysed in 20 ul of lysis buffer for AlphaScreen® SureFire® detection.
For detection of p-AKT(Ser473), the SureFire® p-Akt 1/2 (Ser473) Assay Kit (PerkinElmer, U.S.A.) was used. 5 ul of cell lysate was transferred to 384-well low volume Proxiplates for detection using a 384-well pipettor. Addition of AlphaScreen® SureFire® reagents was done according to the manufacturer's protocol. First, 5 ul of reaction buffer plus activation buffer mix containing AlphaScreen® acceptor beads was added, the plate was sealed, and incubated on a plate shaker for 2 hours at room temperature. Second, 2 ul of dilution buffer containing AlphaScreen® donor beads was added, and the plate was incubated on plate shaker as above for a further 2 hours. The plate was read on an AlphaScreen® compatible plate reader, using standard AlphaScreen® settings. Alternatively, p-AKT(Ser473) was detected with the CisBio HTRF Assay Kit: As positive control, 0.9 mM of 1-(3-(trifluoromethyl)-4-(piperazin-1-yl)phenyl)-8-(6-methoxypyridin-3-yl)-3-methyl-1H-imidazo[4,5-c]quinolin-2(3H)-one maleic acid salt in 90% (v/v) DMSO was added to the compound master plate. For compound testing, the cells were seeded at a density of 4000 (Rat-1_PI3Kdelta), 8000 (Rat-1_PI3Kalpha), or 6500 (Rat-1_PI3Kbeta) cells in 30 ul complete growth medium into 384-well plates, with a plastic surface promoting the adhesion of cells and their growth (assay plates) and were grown at 37° C./5% CO2/90% humidity for 24 h. Some 10 ul of the compound predilutions from the daughter plate were then transferred to the cells. After treatment with compound for 1 h, medium was removed and cells were lysed by the addition of 20 ul lysis buffer supplemented with blocking buffer. Detection of p-AKT(Ser473) was performed with the HTRF pAKT (Ser473) assay kit according to the manufacturer's instructions using 16 ul of cell lysate in a total detection volume of 20 ul.

PI3K alpha, sequence (P42336 21-1068): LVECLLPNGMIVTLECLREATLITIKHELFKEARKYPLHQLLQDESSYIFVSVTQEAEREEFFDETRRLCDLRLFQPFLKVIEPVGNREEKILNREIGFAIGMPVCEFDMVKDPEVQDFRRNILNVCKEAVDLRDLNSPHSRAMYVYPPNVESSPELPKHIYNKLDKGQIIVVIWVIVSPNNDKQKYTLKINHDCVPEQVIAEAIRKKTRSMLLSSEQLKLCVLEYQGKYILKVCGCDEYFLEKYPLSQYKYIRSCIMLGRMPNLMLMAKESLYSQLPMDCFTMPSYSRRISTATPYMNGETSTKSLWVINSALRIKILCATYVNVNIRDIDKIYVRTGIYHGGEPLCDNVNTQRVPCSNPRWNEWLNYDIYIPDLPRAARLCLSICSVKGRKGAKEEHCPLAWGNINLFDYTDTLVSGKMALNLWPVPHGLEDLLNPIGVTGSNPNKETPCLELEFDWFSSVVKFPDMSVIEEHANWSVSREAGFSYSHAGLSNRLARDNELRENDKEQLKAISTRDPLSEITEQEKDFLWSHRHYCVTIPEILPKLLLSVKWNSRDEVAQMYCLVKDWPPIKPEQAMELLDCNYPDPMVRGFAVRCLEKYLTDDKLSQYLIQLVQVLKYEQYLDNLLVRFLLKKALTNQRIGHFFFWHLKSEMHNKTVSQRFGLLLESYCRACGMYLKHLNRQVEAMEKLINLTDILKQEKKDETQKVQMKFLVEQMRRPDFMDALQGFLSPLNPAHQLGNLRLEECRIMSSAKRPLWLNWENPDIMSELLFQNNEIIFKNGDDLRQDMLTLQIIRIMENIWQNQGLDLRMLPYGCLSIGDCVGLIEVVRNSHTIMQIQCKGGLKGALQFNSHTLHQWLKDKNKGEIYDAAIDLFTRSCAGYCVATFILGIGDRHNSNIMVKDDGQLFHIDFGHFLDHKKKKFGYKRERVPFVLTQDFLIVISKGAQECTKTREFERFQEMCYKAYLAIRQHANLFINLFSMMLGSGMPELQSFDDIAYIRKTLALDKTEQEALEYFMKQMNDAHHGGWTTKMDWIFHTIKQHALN
PI3K alpha, sequence (P27986 461-568 partner): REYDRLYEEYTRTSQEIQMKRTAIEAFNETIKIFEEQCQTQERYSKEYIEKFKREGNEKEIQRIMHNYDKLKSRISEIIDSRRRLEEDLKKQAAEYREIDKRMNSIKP
human phosphoinositide-3 kinase (PI3K) alpha, sequence (P42336 whole entry): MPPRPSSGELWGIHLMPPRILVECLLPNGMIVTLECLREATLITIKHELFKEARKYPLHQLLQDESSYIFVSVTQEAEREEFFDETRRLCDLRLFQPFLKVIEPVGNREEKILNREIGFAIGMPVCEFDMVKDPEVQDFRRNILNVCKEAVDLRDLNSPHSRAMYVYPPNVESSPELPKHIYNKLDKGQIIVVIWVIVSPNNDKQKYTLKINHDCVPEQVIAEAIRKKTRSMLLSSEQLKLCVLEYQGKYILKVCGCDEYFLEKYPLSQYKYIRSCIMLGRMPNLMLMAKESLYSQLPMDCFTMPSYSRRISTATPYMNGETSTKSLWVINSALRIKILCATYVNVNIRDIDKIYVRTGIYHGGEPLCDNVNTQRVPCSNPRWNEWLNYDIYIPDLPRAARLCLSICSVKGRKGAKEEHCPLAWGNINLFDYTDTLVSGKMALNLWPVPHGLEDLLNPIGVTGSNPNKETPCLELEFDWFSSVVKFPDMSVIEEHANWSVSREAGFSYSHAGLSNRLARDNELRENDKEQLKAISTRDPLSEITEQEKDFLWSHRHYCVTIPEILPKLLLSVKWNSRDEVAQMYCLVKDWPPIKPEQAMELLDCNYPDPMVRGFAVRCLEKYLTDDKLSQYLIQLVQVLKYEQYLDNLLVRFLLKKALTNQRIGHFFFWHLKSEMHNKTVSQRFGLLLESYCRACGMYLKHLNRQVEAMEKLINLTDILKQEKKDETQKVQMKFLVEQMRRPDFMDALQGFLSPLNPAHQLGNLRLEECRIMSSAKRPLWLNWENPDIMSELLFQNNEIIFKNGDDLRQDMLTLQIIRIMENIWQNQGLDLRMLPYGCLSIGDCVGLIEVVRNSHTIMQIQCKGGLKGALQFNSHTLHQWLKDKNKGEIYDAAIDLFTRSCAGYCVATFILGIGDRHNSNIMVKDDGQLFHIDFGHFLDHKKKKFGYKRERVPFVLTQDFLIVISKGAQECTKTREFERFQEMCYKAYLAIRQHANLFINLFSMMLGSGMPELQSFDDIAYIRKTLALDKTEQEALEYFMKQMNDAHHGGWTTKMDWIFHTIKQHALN
human phosphoinositide-3 kinase (PI3K) alpha, sequence (Q63787 whole entry partner): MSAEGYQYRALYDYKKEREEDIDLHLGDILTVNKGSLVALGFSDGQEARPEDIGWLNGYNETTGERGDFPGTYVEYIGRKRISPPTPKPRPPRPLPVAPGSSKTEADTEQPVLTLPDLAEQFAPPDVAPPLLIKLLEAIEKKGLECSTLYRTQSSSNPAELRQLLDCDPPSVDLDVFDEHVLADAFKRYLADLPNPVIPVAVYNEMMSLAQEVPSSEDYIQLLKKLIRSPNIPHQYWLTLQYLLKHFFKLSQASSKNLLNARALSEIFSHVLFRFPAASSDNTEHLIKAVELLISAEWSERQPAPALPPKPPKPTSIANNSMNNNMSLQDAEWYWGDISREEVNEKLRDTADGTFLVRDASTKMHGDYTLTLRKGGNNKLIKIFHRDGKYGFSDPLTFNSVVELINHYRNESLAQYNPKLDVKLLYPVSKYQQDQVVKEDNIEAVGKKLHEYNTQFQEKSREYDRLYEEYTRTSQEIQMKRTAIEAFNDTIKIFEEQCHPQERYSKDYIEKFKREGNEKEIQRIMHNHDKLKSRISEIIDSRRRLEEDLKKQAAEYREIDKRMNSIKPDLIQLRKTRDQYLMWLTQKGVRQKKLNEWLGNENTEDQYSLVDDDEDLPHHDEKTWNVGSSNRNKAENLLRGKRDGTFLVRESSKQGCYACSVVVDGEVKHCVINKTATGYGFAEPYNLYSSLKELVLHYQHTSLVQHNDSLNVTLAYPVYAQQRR

On to `Cc1ccccc1-n1c([C@@H]2CCCN2c2ncnc(N)c2C#N)nc2cccc(-c3cnn(C)c3)c2c1=O` [Example 14, (S)-4-Amino-6-(2-(5-(1-methyl-1H-pyrazol-4-yl)-4-oxo-3-(otolyl)-3,4-dihydroquinazolin-2-yl)pyrrolidin-1-yl)pyrimidine-5-carbonitrile], for which the figures for the IC50 (at PI3K alpha; in assay [1]) were 920 nM and 3300 nM, respectively.

Turning to `Cn1cnc(-c2cccc3nc([C@@H]4CCCN4c4ncnc(N)c4C#N)n(-c4ccccc4)c(=O)c23)c1` [Example 15, (S)-4-Amino-6-(2-(5-(1-methyl-1H-imidazol-4-yl)-4-oxo-3-phenyl-3,4-dihydroquinazolin-2-yl)pyrrolidin-1-yl)pyrimidine-5-carbonitrile], the IC50 (on PI3K alpha; in assay [1]) was greater than 10000 nM in each case.

Consider `Cc1nc(N)nc(N2C[C@@H](O)C[C@H]2c2nc3cccc(-c4cnn(C)c4)c3c(=O)n2-c2ccccc2)c1C#N` [Example 16, 2-Amino-4-((2S,4S)-4-hydroxy-2-(5-(1-methyl-1H-pyrazol-4-yl)-4-oxo-3-phenyl-3,4-dihydroquinazolin-2-yl)pyrrolidin-1-yl)-6-methylpyrimidine-5-carbonitrile], for which the values for the IC50 (on PI3K alpha; in assay [1]) were 180 nM and 2700 nM, respectively.

Consider `Cc1nc(N)nc(N2CCC[C@H]2c2nc3cccc(-c4cncnc4)c3c(=O)n2-c2ccccc2)c1C#N` [Example 17, (S)-2-Amino-4-methyl-6-(2-(4-oxo-3-phenyl-5-(pyrimidin-5-yl)-3,4-dihydroquinazolin-2-yl)pyrrolidin-1-yl)pyrimidine-5-carbonitrile], for which the half-maximal inhibitory concentration (IC50) came out at 1200 nM against PI3K alpha and 5800 nM in assay [1].

As to `COc1cncc(-c2cccc3nc([C@@H]4CCCN4c4nc(N)nc(C)c4C#N)n(-c4ccccc4)c(=O)c23)c1` [Example 18, (S)-2-Amino-4-(2-(5-(5-methoxypyridin-3-yl)-4-oxo-3-phenyl-3,4-dihydroquinazolin-2-yl)pyrrolidin-1-yl)-6-methylpyrimidine-5-carbonitrile], the concentration for half-maximal inhibition (IC50) at PI3K alpha was found to be 56 nM; in assay [1] it was 420 nM.

On to `Cc1ncc(-c2cccc3nc([C@@H]4CCCN4c4nc(N)nc(C)c4C#N)n(-c4ccccc4)c(=O)c23)cn1` [Example 19, (S)-2-Amino-4-methyl-6-(2-(5-(2-methylpyrimidin-5-yl)-4-oxo-3-phenyl-3,4-dihydroquinazolin-2-yl)pyrrolidin-1-yl)pyrimidine-5-carbonitrile], for which the concentration for half-maximal inhibition (IC50) stood at 820 nM against PI3K alpha and 5400 nM in assay [1].

As to `Cc1nc(N)nc(N2CCC[C@H]2c2nc3cccc(-c4cccnc4)c3c(=O)n2-c2ccccc2)c1C#N` [Example 20, (S)-2-Amino-4-methyl-6-(2-(4-oxo-3-phenyl-5-(pyridin-3-yl)-3,4-dihydroquinazolin-2-yl)pyrrolidin-1-yl)pyrimidine-5-carbonitrile], the IC50 at PI3K alpha stood at 260 nM; in assay [1], 1500 nM.

In the case of `COc1ccc(-c2cccc3nc([C@@H]4CCCN4c4nc(N)nc(C)c4C#N)n(-c4ccccc4)c(=O)c23)cn1` [Example 21, (S)-2-Amino-4-(2-(5-(6-methoxypyridin-3-yl)-4-oxo-3-phenyl-3,4-dihydroquinazolin-2-yl)pyrrolidin-1-yl)-6-methylpyrimidine-5-carbonitrile], the results for the IC50 (against PI3K alpha; in assay [1]) were 260 nM and 2500 nM, respectively.

For the compound `COc1ncc(-c2cccc3nc([C@@H]4C[C@H](O)CN4c4nc(N)nc(C)c4C#N)n(-c4ccccc4)c(=O)c23)cn1` [Example 22, 2-Amino-4-((2S,4S)-4-hydroxy-2-(5-(2-methoxypyrimidin-5-yl)-4-oxo-3-phenyl-3,4-dihydroquinazolin-2-yl)pyrrolidin-1-yl)-6-methylpyrimidine-5-carbonitrile], the IC50 on PI3K alpha is 580 nM; in assay [1], greater than 10000 nM.

For the compound `Cc1nc(N)nc(N2C[C@@H](O)C[C@H]2c2nc3cccc(-c4cccnc4)c3c(=O)n2-c2ccccc2)c1C#N` [Example 24, 2-Amino-4-((2S,4S)-4-hydroxy-2-(4-oxo-3-phenyl-5-(pyridin-3-yl)-3,4-dihydroquinazolin-2-yl)pyrrolidin-1-yl)-6-methylpyrimidine-5-carbonitrile], the results for the half-maximal inhibitory concentration (IC50) (against PI3K alpha; in assay [1]) were 170 nM and 5000 nM, respectively.

`COc1cncc(-c2cccc3nc([C@@H]4C[C@H](O)CN4c4nc(N)nc(C)c4C#N)n(-c4ccccc4)c(=O)c23)c1` [Example 25, 2-Amino-4-((2S,4S)-4-hydroxy-2-(5-(5-methoxypyridin-3-yl)-4-oxo-3-phenyl-3,4-dihydroquinazolin-2-yl)pyrrolidin-1-yl)-6-methylpyrimidine-5-carbonitrile]: the IC50 at PI3K alpha was 48 nM; in assay [1], 1900 nM.

With `Cc1nc(N)nc(N2C[C@@H](O)C[C@H]2c2nc3cccc(-c4cncnc4)c3c(=O)n2-c2ccccc2)c1C#N` [Example 26, 2-Amino-4-((2S,4S)-4-hydroxy-2-(4-oxo-3-phenyl-5-(pyrimidin-5-yl)-3,4-dihydroquinazolin-2-yl)pyrrolidin-1-yl)-6-methylpyrimidine-5-carbonitrile], the IC50 on PI3K alpha was 530 nM; in assay [1] it was greater than 6500 nM.

On to `COc1ccc(-c2cccc3nc([C@@H]4C[C@H](O)CN4c4nc(N)nc(C)c4C#N)n(-c4ccccc4)c(=O)c23)cn1` [Example 27, 2-Amino-4-((2S,4S)-4-hydroxy-2-(5-(6-methoxypyridin-3-yl)-4-oxo-3-phenyl-3,4-dihydroquinazolin-2-yl)pyrrolidin-1-yl)-6-methylpyrimidine-5-carbonitrile], for which the IC50 against PI3K alpha turned out to be 86 nM; in assay [1], 1300 nM.

A word on the IC50: it is the concentration that inhibits the measured activity by half.
